Measurements: patent US12012415B2, “Compositions and methods for the diagnosis, treatment and prevention of neoplastic and neurological disorders” (AscentGene, Inc., priority 2018, dated 2024)

Experiments:
[1] = test system: hippocampal synaptic plasticity in the CA1 region; assay: In vivo electrophysiology, hippocampal CA1 LTP and DEP, Aβ1-42 AD rat model; set-up: species or system rats; settings: last 20 min, vs Aβ1-42 group
Method: Aβ1-42 (Sigma-Aldrich, St. Louis, MO, USA;) was dissolved in double-distilled water at the concentration of 5 μg/μl, and incubated at 37° C. for one week before surgery. The rats were randomly divided into four groups as Sham (n=8), Sham+AG-1601 (n=8), Aβ1-42 (n=8) and Aβ1-42+AG-1601 (n=8). The Alzheimer's disease rat models were established by intracerebroventricular (i.c.v.) injection of Aβ1-42 aggregates. The animals were anesthetized with intraperitoneal injection of pentobarbital sodium (50 mg/kg) and placed in a stereotaxic apparatus (Narishige, Japan). The head skin of the rat was opened and two small holes were drilled on both sides of skull following the coordinates: 0.8 mm posterior to bregma, +1.4 mm lateral to sagittal suture, 4.0 mm beneath the surface of brain. Aβ1-42 (2.0 μl per side) was injected bilaterally into the lateral ventricles through micro-syringe. The needle was taken out after 5 minutes of the injection to ensure the aggregates were infused completely. Rats in the Sham group underwent the same operational process, but same volumes of double-distilled water were injected instead of Aβ1-42. After surgery, all rats were injected with penicillin (100,000 U) in the hindquarter muscle to prevent infection. The animals of Sham+AG-1601 and Aβ1-42+AG-1601 groups were intravenous injection with AG-1601 (1 mg/kg), while the same volume vehicle was implemented for the other groups every day for 14 days after one week of the postoperative recovery. The rats were placed in the stereotaxic apparatus after intraperitoneal injection of 30% urethane (0.4 g/kg Sigma-Aldrich, St. Louis, MO, USA). According to our former protocols (Gao et al., 2015) the appropriate incision on the scalp was cut to expose the skull and a small hole was drilled. […] The depth of both electrodes was optimized to acquire the proper amplitude of evoked potentials. […] A test stimulus was given every 30 s to record for 20 min as baseline. Then LTP was induced by TBS (30 trains of 12 pulses at 200 Hz) and recorded every 60s for 60 min. […]

Glioma cells = assay: Cell viability assay in glioma cells versus TMZ and Carmustine; assay type: cell-based, human; settings: 48 hours treatment
Method: Human glioma cell lines of U251, SF539, SF295 were obtained from NCI/DTP and U87 was obtained from ATCC. U251, SF539, and SF295 cells were grown in RPMI (Gibco) medium; U87 cells were grown in EMEM medium (ATCC), all the cells culture media containing 10% FBS and 100 unit/ml of Penicillin-Streptomycin, and cells were incubated in a 37 °C/5% CO2 humidified hood. One day before chemical compounds treatment, four kinds of cells U251, SF539, SF295, and U87 were seeded in 96-well plates at 10,000 cells/well (100 μl) with triplicate. The culture medium was removed and cells were treated with a series different concentration of AG1601/in correspond fresh media. Following an additional incubation of 48 hours at 37° C./5% CO2, cells proliferation assay was performed with Cell Counting Kit-8 (Dojindo Laboratories, #CK04), added 10 μl of reagent to the cells in each well after replacing with 100 μl of fresh media, mix well, following an additional 2 to 3 hours incubation at 37° C./5% CO2, read wavelengths of OD450 nm in a 96-well plate reader (Victor 2, 1420 Multilabel counter), data analysis were performed with Excel and it is platted as relative mean OD450 nm+/−standard error of the mean.
Cells were treated with indicated content of AG-1601 for 48 hours, then followed by performance of cell viability assays. […]

C=CC1=C(C)c2cc3[nH]c(cc4nc(cc5[nH]c(cc1n2)c(C)c5C=C)C(C)=C4CCC(=O)O)c(CCC(=O)NCCCc1ccccc1)c3C [AG-1601, 3-(2,8,13,18-tetramethyl-3-(3-oxo-3-((3-phenylpropyl)amino)propyl)-12,17-divinylporphyrin-7-yl)propanoic acid]
fEPSP slopes of DEP [1]: reversed effectively
fEPSP slopes of LTP [1]: significantly recovered
fEPSP slopes of LTP ([1]; listed as AG-1061): augmented significantly
efficacy on glioma cells compared with TMZ and Carmustine (Glioma cells): better efficacy on Glioma cells in vitro than TMZ and Carmustine
